Results on 33 molecules are retold here after patent US9493436B2, “Tyrosine phosphatase inhibitors and uses thereof to modulate the activity of enzymes involved in the pathology of Mycobacterium tuberculosis” (priority 2011, dated 2016).

Like-named read-outs stand apart in the source and are kept apart here.

As a reminder, the IC50 is the midpoint of a concentration-inhibition curve.

One test concerns the target T1, mPTPB (Mycobacterium tuberculosis, UniProt I6WXK4).
T1 construct: The full-length mPTPB with a N-terminal His6-tag was expressed and purified; His6 (N); made in house; host or cells: E. coli BL21/DE3 (pET28b-mPTPB)
T1 sequence (I6WXK4 1-276): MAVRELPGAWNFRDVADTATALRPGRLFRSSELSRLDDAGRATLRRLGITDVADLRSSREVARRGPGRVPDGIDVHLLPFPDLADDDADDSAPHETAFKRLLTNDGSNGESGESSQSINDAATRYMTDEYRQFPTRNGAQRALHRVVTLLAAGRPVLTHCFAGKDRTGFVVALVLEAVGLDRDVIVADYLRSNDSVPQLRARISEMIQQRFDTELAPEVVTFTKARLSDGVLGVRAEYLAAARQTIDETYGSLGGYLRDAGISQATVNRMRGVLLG
Briefly: biochemical. The conditions noted are these: for In % @ 1 μM (mPTPB): library 13 screened in situ. Type of test: biochemical.

For the next test, the target named is T2, Lyp (Homo sapiens, UniProt Q9Y2R2).
T2 sequence (Q9Y2R2 1-807): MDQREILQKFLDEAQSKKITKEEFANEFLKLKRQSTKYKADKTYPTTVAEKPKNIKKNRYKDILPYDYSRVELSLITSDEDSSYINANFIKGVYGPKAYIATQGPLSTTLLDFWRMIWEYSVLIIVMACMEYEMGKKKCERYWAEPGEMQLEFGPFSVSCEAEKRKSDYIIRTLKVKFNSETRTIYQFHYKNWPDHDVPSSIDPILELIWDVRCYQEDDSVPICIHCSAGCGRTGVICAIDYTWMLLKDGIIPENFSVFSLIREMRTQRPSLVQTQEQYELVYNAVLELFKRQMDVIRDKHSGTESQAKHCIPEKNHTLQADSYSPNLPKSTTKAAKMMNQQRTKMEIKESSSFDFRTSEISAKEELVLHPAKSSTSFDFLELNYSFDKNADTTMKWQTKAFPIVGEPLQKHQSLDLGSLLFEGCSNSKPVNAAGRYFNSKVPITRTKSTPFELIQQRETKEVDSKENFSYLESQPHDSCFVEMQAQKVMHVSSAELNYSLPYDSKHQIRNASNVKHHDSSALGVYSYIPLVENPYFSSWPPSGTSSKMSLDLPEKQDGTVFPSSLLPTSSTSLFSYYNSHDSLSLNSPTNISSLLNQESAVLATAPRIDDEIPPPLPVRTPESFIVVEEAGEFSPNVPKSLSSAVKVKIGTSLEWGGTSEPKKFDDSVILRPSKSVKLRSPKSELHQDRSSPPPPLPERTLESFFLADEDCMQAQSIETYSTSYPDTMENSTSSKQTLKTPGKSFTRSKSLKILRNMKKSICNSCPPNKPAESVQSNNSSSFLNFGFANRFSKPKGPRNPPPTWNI
The experiment in a line: biochemical. It is filed as biochemical.

[1] abbreviates: pNPP substrate, pH 7.0, 25° C., read-out: IC50 (μM) against mPTPB.

Consider `Cn1c(-c2ccccc2C(F)(F)F)c(C#Cc2ccccc2C(F)(F)F)c2cc(C(=O)O)c(O)cc21` [Compound 209c, 6-hydroxy-1-methyl-2-(2-(trifluoromethyl)phenyl)-3-((2-(trifluoromethyl)phenyl)ethynyl)-1H-indole-5-carboxylic acid], for which, on mPTPB (setting [1]), the concentration for half-maximal inhibition (IC50) was found to be 0.3 ± 0.05 µM. With `C#Cc1c(-c2cccc(Cl)c2)oc2cc(O)c(C(=O)O)cc12` [42 (Core72)], the IC50 on mPTPB (setting [1]) amounted to 3.1 µM. For `O=C(O)c1cc2c(C#Cc3ccc(Oc4ccccc4)cc3)c(-c3ccccc3)oc2cc1O` [34 (L01Z12)], on mPTPB (setting [1]), the IC50 was 0.043 µM. On the same count and under the same terms, as for `C#Cc1c(-c2ccc(Oc3ccccc3)cc2)oc2cc(O)c(C(=O)O)cc12` [40 (Core69)], the figure is 2.3 µM.

Regarding `Cn1c(-c2ccccc2C(F)(F)F)c(C(=O)CCNC(=O)c2cccc(I)c2)c2cc(C(=O)O)c(O)cc21` [Compound 213b, 6-hydroxy-3-(3-(3-iodobenzamido)propanoyl)-1-methyl-2-(2-(trifluoromethyl)phenyl)-1H-indole-5-carboxylic acid], on mPTPB, the “In % @ 1 μM (mPTPB)” value is 52%. Further, on mPTPB (setting [1]), the IC50 was determined as 0.68 ± 0.04 µM. Consider `Cn1c(-c2cccc(C(F)(F)F)c2)c(I)c2cc(C(=O)O)c(O)cc21` [Compound 207b, 6-hydroxy-3-iodo-1-methyl-2-(3-(trifluoromethyl)phenyl)-1H-indole-5-carboxylic acid], for which the half-inhibitory concentration (IC50) on mPTPB (setting [1]) amounted to 2.2 ± 0.2 µM.

In the case of `Cn1c(-c2cccc(F)c2)c(I)c2cc(C(=O)O)c(O)cc21` [Compound 207h, 2-(3-fluorophenyl)-6-hydroxy-3-iodo-1-methyl-1H-indole-5-carboxylic acid], the IC50 on mPTPB (setting [1]) was determined as 11 ± 1 µM. Same read-out and setting: as for `C#Cc1c(-c2ccc(OC(F)(F)F)cc2)oc2cc(O)c(C(=O)O)cc12` [35 (Core73)], the figure is 1.71 µM. As to `CC(=O)NCCC(=O)c1c(-c2ccccc2C(F)(F)F)n(C)c2cc(O)c(C(=O)O)cc12` [Compound 213e, 3-(3-acetamidopropanoyl)-6-hydroxy-1-methyl-2-(2-(trifluoromethyl)phenyl)-1H-indole-5-carboxylic acid], the “In % @ 1 μM (mPTPB)” value on mPTPB was found to be 0%. In addition, the IC50 on mPTPB (setting [1]) is more than 20 µM. `Cn1c(C2CCCCC2)c(I)c2cc(C(=O)O)c(O)cc21` [Compound 207d, 2-cyclohexyl-6-hydroxy-3-iodo-1-methyl-1H-indole-5-carboxylic acid]: at mPTPB (setting [1]), the half-inhibitory concentration (IC50) stood at 3.6 ± 0.1 µM.

Consider `O=C(O)COc1cccc(C#Cc2c(-c3ccc(OC(F)(F)F)cc3)oc3cc(O)c(C(=O)O)cc23)c1` [39 (L73Z05)], for which the IC50 at mPTPB (setting [1]) was determined as 0.19 µM.

Turning to `O=C(O)c1cc2c(C#Cc3cccc(Cl)c3)c(-c3ccc(OC(F)(F)F)cc3)oc2cc1O` [36 (L73Z01)], the IC50 at mPTPB (setting [1]) is 0.082 µM.

Regarding `CC(C)[C@H]1CC[C@H](C)C[C@@H]1OCC(=O)NCCC(=O)c1c(-c2ccccc2C(F)(F)F)n(C)c2cc(O)c(C(=O)O)cc12` [Compound 213c, 6-hydroxy-3-(3-(2-(((1S,2R,5S)-2-isopropyl-5-methylcyclohexyl)oxy)acetamido)propanoyl)-1-methyl-2-(2-(trifluoromethyl)phenyl)-1H-indole-5-carboxylic acid], the “In % @ 1 μM (mPTPB)” value at mPTPB amounted to 5%. Also, on mPTPB (setting [1]), the IC50 is 3.3 ± 0.1 µM. In the case of `C#Cc1c(-c2ccc(-c3ccccc3)cc2)oc2cc(O)c(C(=O)O)cc12` [41 (Core71)], the IC50 on mPTPB (setting [1]) came out at 0.85 µM.

As for `O=C(O)c1cc2c(C#Cc3ccc(Cl)c(Cl)c3)c(-c3ccc(OC(F)(F)F)cc3)oc2cc1O` [37 (L73Z02)], the IC50 on mPTPB (setting [1]) is 0.12 µM.

As for `Cn1c(-c2ccccc2F)c(I)c2cc(C(=O)O)c(O)cc21` [Compound 207j, 2-(2-fluorophenyl)-6-hydroxy-3-iodo-1-methyl-1H-indole-5-carboxylic acid], the IC50 on mPTPB (setting [1]) came to 16 ± 2 µM.

With `Cn1c(-c2ccccc2C(F)(F)F)c(C(=O)CCNC(=O)c2ccc3nc(-c4ccccc4Br)[nH]c3c2)c2cc(C(=O)O)c(O)cc21` [Compound 213d, 3-(3-(2-(2-bromophenyl)-1H-benzo[d]imidazole-6-carboxamido)propanoyl)-6-hydroxy-1-methyl-2-(2-(trifluoromethyl)phenyl)-1H-indole-5-carboxylic acid], on mPTPB, the “In % @ 1 μM (mPTPB)” value is on record as 10%. Besides, on mPTPB (setting [1]), the IC50 was determined as 5.2 ± 0.2 µM. In the case of `Cn1c(-c2ccccc2C(F)(F)F)c(C#Cc2cccc(C(F)(F)F)c2)c2cc(C(=O)O)c(O)cc21` [Compound 209b, 6-hydroxy-1-methyl-2-(2-(trifluoromethyl)phenyl)-3-((3-(trifluoromethyl)phenyl)ethynyl)-1H-indole-5-carboxylic acid], the IC50 at mPTPB (setting [1]) was determined as 0.23 ± 0.04 µM.

As for `Cn1c(-c2ccc(F)cc2)c(I)c2cc(C(=O)O)c(O)cc21` [Compound 207i, 2-(4-fluorophenyl)-6-hydroxy-3-iodo-1-methyl-1H-indole-5-carboxylic acid], the IC50 on mPTPB (setting [1]) amounted to 12 ± 2 µM. Still for that read-out and setting: as for `O=C(O)c1cc2c(C#Cc3ccsc3)c(-c3ccc(OC(F)(F)F)cc3)oc2cc1O` [38 (L73Z03)], the figure is 0.35 µM. On the same count and under the same terms, the result for `Cn1c(-c2ccc(C(F)(F)F)cc2)c(I)c2cc(C(=O)O)c(O)cc21` [Compound 207f, 6-hydroxy-3-iodo-1-methyl-2-(4-(trifluoromethyl)phenyl)-1H-indole-5-carboxylic acid] reads 7 ± 1 µM. As to `CC(C)c1ccc(NC(=O)COc2cccc(-c3oc4cc(O)c(C(=O)O)cc4c3C#Cc3cccc(Cl)c3)c2)cc1`, the IC50 on mPTPB (read-out: IC50 for mPTPB) is approximately 0.025 µM.

Consider `Cn1c(-c2ccc(OC(F)(F)F)cc2)c(I)c2cc(C(=O)O)c(O)cc21` [Compound 207e, 6-hydroxy-3-iodo-1-methyl-2-(4-(trifluoromethoxy)phenyl)-1H-indole-5-carboxylic acid], for which the IC50 at mPTPB (setting [1]) worked out at 5.5 ± 0.5 µM. Same read-out and setting: the result for `Cn1c(-c2ccccc2)c(I)c2cc(C(=O)O)c(O)cc21` [Compound 207g, 6-hydroxy-3-iodo-1-methyl-2-phenyl-1H-indole-5-carboxylic acid] reads 11 ± 1 µM. Regarding `O=C(O)COc1ccc(-c2oc3cc(O)c(C(=O)O)cc3c2C#Cc2cccc(Cl)c2)cc1` [50 (Core 75)], the IC50 on mPTPB (setting [1]) worked out at 0.101 µM. Also, on Lyp, the IC50 came out at 7.6 ± 0.4 µM and the “loss of activity compare with compound 133 for Lyp” value was determined as 7.8 fold.

For `Cn1c(-c2ccc(-c3ccccc3)cc2)c(I)c2cc(C(=O)O)c(O)cc21` [Compound 207c, 2-([1,1′-biphenyl]-4-yl)-6-hydroxy-3-iodo-1-methyl-1H-indole-5-carboxylic acid], at mPTPB (setting [1]), the IC50 came to 2.4 ± 0.2 µM.

In the case of `Cn1c(-c2ccccc2C(F)(F)F)c(C#Cc2ccc(Oc3ccccc3)cc2)c2cc(C(=O)O)c(O)cc21` [Compound 209d, 6-hydroxy-1-methyl-3-((4-phenoxyphenyl)ethynyl)-2-(2-(trifluoromethyl)phenyl)-1H-indole-5-carboxylic acid], the IC50 on mPTPB (setting [1]) came out at 0.46 ± 0.06 µM. For `Cn1c(-c2ccccc2C(F)(F)F)c(C#Cc2ccc(C(F)(F)F)cc2)c2cc(C(=O)O)c(O)cc21` [Compound 209e, 6-hydroxy-1-methyl-2-(2-(trifluoromethyl)phenyl)-3-((4-(trifluoromethyl)phenyl)ethynyl)-1H-indole-5-carboxylic acid], the IC50 on mPTPB (setting [1]) was found to be 0.6 ± 0.1 µM.

`O=C(O)c1cc2c(C=Cc3cccc(C(F)(F)F)c3)c(-c3ccccc3)oc2cc1O` [44 (L01X09)]: on mPTPB (setting [1]), the IC50 amounted to 1.2 µM. Turning to `O=C(O)COc1cccc(-c2oc3cc(O)c(C(=O)O)cc3c2C#Cc2cccc(Cl)c2)c1` [49 (Core 74)], the IC50 at mPTPB (setting [1]) worked out at 0.076 µM. Moreover, the “loss of activity compare with compound 133 for Lyp” value at Lyp is listed as 15 fold. `Cn1c(-c2cccc(O)c2)c(I)c2cc(C(=O)O)c(O)cc21` [Compound 207k, 6-hydroxy-2-(3-hydroxyphenyl)-3-iodo-1-methyl-1H-indole-5-carboxylic acid]: the IC50 at mPTPB (setting [1]) worked out at 18 ± 1 µM. For `Cn1c(-c2ccccc2C(F)(F)F)c(C#Cc2ccc(OC(F)(F)F)cc2)c2cc(C(=O)O)c(O)cc21` [Compound 209f, 6-hydroxy-1-methyl-3-((4-(trifluoromethoxy)phenyl)ethynyl)-2-(2-(trifluoromethyl)phenyl)-1H-indole-5-carboxylic acid], the IC50 on mPTPB (setting [1]) was determined as 0.85 ± 0.2 µM. Same read-out and setting: the result for `O=C(O)c1cc2c(C=Cc3cc(F)cc(F)c3)c(-c3ccccc3)oc2cc1O` [43 (L01Z25)] reads 1.2 µM.
